According to patent publication US9295651B2, “Nanoconjugates and nanoconjugate formulations” (priority 2009, dated 2016):

Key:
LLC tumors = assay: Tumor prevention/inhibition study, LLC cells co-injected subcutaneously with test article; assay type: in vivo, C57B1/6 female mice; details: at 25 days, 5 mg/kg in 1:1 Cremophor EL/ethanol
Experimental: To access the ability of paclitaxel-loaded nanoparticles to inhibit establishment of lung cancer in an in vivo model mimicking microscopic disease that can remain when the surgical margin is close to the tumor, Ptxl-PLA NCs were evaluated in a rapidly growing subcutaneous tumor model. Specifically, the ability of Ptxl-PLA NCs to prevent establishment of rapidly growing LLC tumors in C57B1/6 female mice compared to Ptxl alone (in a clinical formulation) and controls without any drugs was assessed. In these experiments, 1,000,000 LLC tumor cells plus Ptxl-LA25/PLGA-mPEG nanoparticles containing a total dose of 5 or 50 mg/kg incorporated Ptxl were injected subcutaneously into the flank of a mouse. Other groups received the injection of 1,000,000 LLC cells alone or LLC cells mixed with Ptxl solubilized with 1:1 Cremophor EL/ethanol as used clinically at 5 mg/kg dosage.

[1] = Lyophilization of PLGA-mPEG NPs in the presence of lyoprotectants, reconstitution with water, DLS; assay type: physicochemical; set-up: key to Aggr. (visible large aggregates): Y = aggregates observed; N = no aggregates observed; details: for Size in nm: PLGA-mPEG NPs lyophilized and reconstituted; for prevention of NP aggregation during lyophilization (in words): PLGA-mPEG5k NPs, lyoprotectant/NP mass ratio up to 10
Experimental: Lyophilization of PLGA-mPEG NPs in the presence of lyoprotectants. An acetone solution of PLGA-mPEG (5 mg/mL, 100 μL) was added dropwise into a vigorously stirred water solution (4 mL) containing the NCs to make the PLGA-mPEG NPs. A lyoprotectant was added to the vigorously stirred NC solution at the selected lyoprotectant/NC mass ratio (varying from 2 to 20). The solution was then lyophilized, reconstituted with 2 mL water and stirred for 5 minutes. The sizes of the resulting NCs were analyzed by DLS.

SMILES	Size in nm ([1]; lyoprotectant/NP mass ratio 2) [nm]	Size in nm ([1]; lyoprotectant/NP mass ratio 10) [nm]	Aggr. (visible large aggregates) ([1]; lyoprotectant/NP mass ratio 2)	Aggr. (visible large aggregates) ([1]; lyoprotectant/NP mass ratio 10)	Distr. No. (number of particle size distributions) ([1]; lyoprotectant/NP mass ratio 10)	PDI ([1]; lyoprotectant/NP mass ratio 10)	SL/SO (ratio of lyophilized NP size to pre-lyophilized NP size) ([1]; lyoprotectant/NP mass ratio 10)	Distr. No. (number of particle size distributions) ([1]; lyoprotectant/NP mass ratio 2)	PDI ([1]; lyoprotectant/NP mass ratio 2)	SL/SO (ratio of lyophilized NP size to pre-lyophilized NP size) ([1]; lyoprotectant/NP mass ratio 2)	prevention of NP aggregation during lyophilization (in words) [1]	tumors at injection site (LLC tumors)
CC(=O)O[C@H]1C(=O)[C@@]2(C)[C@H]([C@H](OC(=O)c3ccccc3)[C@]3(O)C[C@H](OC(=O)[C@H](O)[C@@H](NC(=O)c4ccccc4)c4ccccc4)C(C)=C1C3(C)C)[C@]1(OC(C)=O)CO[C@@H]1C[C@@H]2O [paclitaxel]	–	–	–	–	–	–	–	–	–	–	–	large tumors were noted
OC[C@H]1O[C@H](O[C@H]2[C@H](O)[C@@H](O)C(O)O[C@@H]2CO)[C@H](O)[C@@H](O)[C@@H]1O (mixture of isomers) [Maltose]	>1000	220.4	Y	Y	2	0.288	3.54	–	–	–	–	–
OC[C@H]1O[C@@](CO)(O[C@H]2O[C@H](CO)[C@@H](O)[C@H](O)[C@H]2O)[C@@H](O)[C@@H]1O [Sucrose]	245.2	217.5	Y	Y	2	0.220	3.49	2	0.227	3.93	–	–
NCC(=O)O [Glycine]	–	>1000	–	Y	–	–	–	–	–	–	unable to prevent NP aggregation	–
CCCCCCCCCCCCOS(=O)(=O)[O-].[Na+] [SDS, sodium dodecyl sulfate]	–	>1000	–	Y	–	–	–	–	–	–	unable to prevent NP aggregation	–

Now from value to compound, other results behind:

Size in nm ([1]; lyoprotectant/NP mass ratio 2) [nm]	Size in nm ([1]; lyoprotectant/NP mass ratio 10) [nm]	Aggr. (visible large aggregates) ([1]; lyoprotectant/NP mass ratio 2)	Aggr. (visible large aggregates) ([1]; lyoprotectant/NP mass ratio 10)	Distr. No. (number of particle size distributions) ([1]; lyoprotectant/NP mass ratio 10)	PDI ([1]; lyoprotectant/NP mass ratio 10)	SL/SO (ratio of lyophilized NP size to pre-lyophilized NP size) ([1]; lyoprotectant/NP mass ratio 10)	Distr. No. (number of particle size distributions) ([1]; lyoprotectant/NP mass ratio 2)	PDI ([1]; lyoprotectant/NP mass ratio 2)	SL/SO (ratio of lyophilized NP size to pre-lyophilized NP size) ([1]; lyoprotectant/NP mass ratio 2)	prevention of NP aggregation during lyophilization (in words) [1]	SMILES	tumors at injection site (LLC tumors)
–	>1000	–	Y	–	–	–	–	–	–	could not prevent NP aggregation at all	O=C[C@H](O)[C@@H](O)[C@@H](O)[C@H](O)CO [Galactose]	–
>1000	764.8	Y	Y	2	0.299	12.28	–	–	–	–	OC[C@@H](O)[C@@H](O)[C@H](O)[C@@H](O)CO [Sorbitol]	–
